The values that follow come from patent US20050215548A1 (Cyclacel Limited, priority 2002, published 2005).

Data set [1] relates to SJSA-1. In words: 72-h MTT cytotoxicity assay, SJSA-1. The conditions noted are these: Homo sapiens. Type of data set: cell-based. In outline: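 Antiproliferative activity was measured on human tumour lines of differing genetic background: SJSA-1, a primitive multipotential bone sarcoma with wild-type p53 and overexpressed HDM2; H1299, a large cell lung carcinoma, p53 null with low HDM2; and AGS, a gastric adenocarcinoma carrying wild-type p53.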
In general terms: Tetrazolium dyes change colour on reduction, which living cells bring about.

Data set [2] concerns non-transformed human cell lines. In words: 72-h MTT panel, average non-transformed. Type of data set: cell-based. The conditions noted are these: average over non-transformed cell lines, read-out: Anti-proliferative activity, 72-h MTT IC50, Average non-transformed. The method, then: (§1) Representative bisarylsulfonamide compounds were tested on a panel of transformed and non-transformed human cell lines, using a standard 72-h MTT cytotoxicity assay [Haselsberger K et al, ibid].
This differential selectivity further supports the notion that the bisarylsulfonamides modulate cellular HDM2 function. It is known that HDM2 amplification is particularly common in soft tissue sarcomas and osteosarcomas [Momand J et al, ibid; Bartel F, Meye A, Wurl P, Kappler M, Bache M, Lautenschlager C, Grunbaum U, Schmidt H, Taubert H; Int. J. Cancer 2001; 95: 168-175].

In data set [3] the test system is AGS, H1299, MCF7 or SJSA1 cells. Kind of data set: Cell morphology (cell rounding). Type of data set: cell-based, human. The conditions noted are these: five times IC50. From the text:
Equal amounts of cell lysate were separated by SDS-PAGE and analysed by immunoblotting using the indicated antibodies. An estimation of the extent of cell rounding is indicated above each lane. The arrow indicates the position of a 85-kDa cleavage product of PARP, indicative of apoptosis. (B) The effect of compound 2 on the levels of the cell cycle proteins in AGS cells (wild-type 53). […] Equal amounts of cell lysate were separated by SDS-PAGE and analysed by immunoblotting using the indicated antibodies. An estimation of the extent of cell rounding is indicated above each lane. (C) The effect of negative control compound (refer Example 10), compound 2, cisplatin, and anisomycin on the levels of key proteins in MCF7 cells. […] Cisplatinum and anisomycin (a transcription inhibitor) treatments were with 50 μM or 37 μM, respectively. Cells were harvested at various time points; afterwards lysates were prepared and separated by SDS-PAGE and analysed by immunoblotting. The proteins detected are indicated. The extent of rounded or floating cells and the percentage viable cells were assessed. […] Equal amounts of cell lysate were separated by SDS-PAGE and analysed by immunoblotting using a range of antibodies. An estimation of the extent of cell rounding is indicated above each lane. […] SJSA1 cells were treated with 5 times [IC50] of compound 2 and collected at the indicated time points. Equal amounts of cell lysate were separated by SDS-PAGE and analysed by immunoblotting using a range of antibodies. An estimation of the extent of cell rounding is indicated above each lane.
Cells were treated with 5 times [IC50] of compound 2 and collected at various time points. The percentage of rounded cells was counted before cells were trypsinised and counted for cell viability using trypan blue.
Cells were lysed and equal amounts were analysed by SDS-polyacrylamide gel electrophoresis (SDS-PAGE) and immunoblotting. […] The reduction in E2F-1 levels correlated with reduction in E2F transcriptional activity as determined by an E2F-dependent luciferase reporter assay (refer Example 6).

The subject of data set [4] is SKUT-1. Kind of data set: 72-h MTT cytotoxicity assay, SKUT-1. Type of data set: cell-based. The conditions noted are these: Homo sapiens, SK-UT-1, 72 h; SKUT-1, Uterus leiomyosarcoma; read-out: Anti-proliferative activity, 72-h MTT IC50. The method, then:
as §1

Data set [5] deals with Nci-H460. In words: 72-h MTT cytotoxicity assay, Nci-H460. The conditions noted are these: Homo sapiens, Nci-H460, Large cell lung carcinoma, read-out: Anti-proliferative activity, 72-h MTT IC50. Type of data set: cell-based. The procedure:
as §1

Data set [6] relates to Lovo. Kind of data set: 72-h MTT cytotoxicity assay, Lovo. Type of data set: cell-based. The conditions noted are these: Homo sapiens, Colon adenocarcinoma, read-out: Anti-proliferative activity, 72-h MTT IC50. The method, then: as §1
The test system of data set [7] is p53. Kind of data set: p53 reporter gene assay (U2OS-derived luciferase reporter cell line). The conditions noted are these: for Fold induction of luciferase activity: compared to basal luciferase activity, 16-h time point, at concentration of maximal induction; for Concentration (test compound concentration at which the p53 induction was maximal): p53 reporter, U2OS-derived cell line.
Method: A dual assay assessing both cell viability and p53 response was employed. A U2OS-derived cell line stably transfected with a p53 response element and a luciferase reporter gene was created. […] After seeding of cells into 96-well tissue culture plates, treatment with test compounds, and incubation for the desired duration, the cell proliferation reagent WST-1 (Roche Molecular Biochemicals) was used to determine cell viability. The Bright-Glo™ Luciferase Assay System (Promega) was used to measure luciferase activity. The data from the cell viability assay was used to normalise data from the luciferase assay.

The test system of data set [8] is Messa. In words: 72-h MTT cytotoxicity assay, Messa. The data set is classed as cell-based. The conditions noted are these: Homo sapiens, MES-SA, Uterus sarcoma, read-out: Anti-proliferative activity, 72-h MTT IC50. The procedure:
as §1

In data set [9] the test system is MCF7 or H1299 cells. Kind of data set: Cell cycle distribution, propidium iodide flow cytometry. Type of data set: cell-based, human. The conditions noted are these: 5 times IC50. The method, then: Cells were stained with propidium iodide and the cell cycle position was determined using a flow cytometer.
The subject of data set [10] is SJSA-1. In words: Combination treatment with cisplatin or etoposide, MTT, SJSA-1. Type of data set: cell-based, human. The source says: It is well established that radiotherapy and most current forms of chemotherapy cause extensive genetic damage and induction of the p53-dependent apoptotic pathway, which determines the important role of this tumor suppressor protein in cancer therapy. HDM2, on the other hand, as a transcriptional product and negative regulator pf p53, would destabilise p53 and diminish its pro-apoptotic function. Inhibitors of the p53-HDM2 negative feedback loop (e.g. compounds disrupting the p53-HDM2 complex) are expected to synergise with cytotoxic agents for induction of p53 and subsequent apoptosis. […] Both chemotherapeutic agents were used in the concentration range of 100-0.19 μM.

The subject of data set [11] is AGS cells. In words: Caspase activity (casp ACE assay), AGS. The data set is classed as cell-based, human. The conditions noted are these: five times the IC50, compared with cisplatin treatment. The procedure: In more detail: (A) Cells were treated with […] [IC50] of compound 2 or cisplatinum and collected at the time points indicated. Cell lysates were prepared, the caspase activity was determined using the casp ACE assay and values were plotted on a graph. (B) Cells were treated with 5 times [IC50] of compound 2 or cisplatinum and collected at the time points indicated. AGS cells were also incubated with compound 2 in the presence of a caspase inhibitor Z-VAD.fmk. Cell lysates were prepared, the caspase activity was determined using the casp ACE assay and values were plotted on a graph.
To characterise the apoptosis-inducing properties of bisarylsulfonamides caspase ⅓ activty was measured. AGS or H1299 cells were treated with a low concentration of compound 2 or cisplatin corresponding to twice the IC50 value (FIG. 6A). Morphological changes were detected in 10-20% of cells by 72 hours corresponding to an induction of caspase activity first detected at 48 hours, increasing by 72 hours. We also treated AGS and H1299 cells with higher concentrations corresponding to five times the IC50 (FIG. 6B). In this experiment we included a […], Z-VAD.fmk to determine the caspase responsible.

[12] abbreviates: 72 h, SJSA-1, Osteosracoma, Table 2, read-out: Anti-proliferative activity, 72-h MTT IC50.
[13] abbreviates: SJSA-1, 72-h MTT, Table 1, read-out: IC50 Anti-proliferative effect on cell line SJSA-1.

The structures appear in SMILES notation.

On to `O=[N+]([O-])c1cc(S(=O)(=O)Nc2ccc(Cl)cc2)sc1Cl` [Compound 2, 5-Chloro-4-nitrothiophene-2-sulfonic acid (4-chlorophenyl)-amide], for which the IC50 in data set [1] (setting [12]) was 13.5 µM; in data set [1] (setting [13]), 13.6 ± 1.1 µM; in [1] (SJSA-1, Example 9, read-out: anti-proliferative IC50 concentration determined for each cell line), 15 µM; in data set [2], 21 ± 3.1 µM; in data set [4], 8.8 µM; in data set [5], 3.3 µM. In addition, the IC50 came out at 2.1 µM in [6]; 13.1 µM in data set [8]; 14 µM in [10] (Homo sapiens, MTT, 72 hours, Table 5, read-out: IC50, agent alone). Further, in [3], the cell rounding entry is on record as “Rapid cell rounding was detected in all cell types tested”. Besides, the “Fold induction of luciferase activity” value in data set [7] is 231 fold. Also, in data set [7], the “Concentration (test compound concentration at which the p53 induction was maximal)” value (shortened to “Concentration”) amounted to 6 µM. For the same compound, the cell cycle arrest entry in [9] is “no detectable arrest at any phase of the cell cycle”. Besides, the “sub-G1 cells, indicative of apoptosis” value in [9] is listed as “induced sub-G1 cells”. Moreover, the “IC50 of etoposide, fold lower in cells pre-treated with 2” value in data set [10] (2 added 6 hours before etoposide) is reported as 726 fold. The “potency increase of cisplatin” value in [10] (2 added prior to the treatment with cisplatin) is 357 fold. Moreover, the caspase activity result in data set [11] is on record as “only weak caspase activity was induced by 24 hours”.

Regarding `O=[N+]([O-])c1cc(S(=O)(=O)Nc2ccc(F)cc2)sc1Cl` [Compound 3, 5-Chloro-4-nitrothiophene-2-sulfonic acid (4-fluorophenyl)amide], the IC50 in [1] (setting [12]) turned out to be 14.1 µM; in [1] (setting [13]) it was 17.1 ± 0.4 µM; in data set [2] it was 18.7 ± 3.1 µM; in [4], 14.1 µM; in [5], 5.2 µM; in data set [6], 2.3 µM. The IC50 in [8] turned out to be 18.3 µM. Further, the “Fold induction of luciferase activity” value in [7] was 200 fold. Besides, the “Concentration” value in [7] came to 6 µM.

As for `O=[N+]([O-])c1cc(S(=O)(=O)Nc2ccc(C(F)(F)F)cc2)sc1Cl` [Compound 6, 5-Chloro-4-nitrothiophene-2-sulfonic acid (4-trifluoromethylphenyl)amide], the IC50 in [1] (setting [12]) was found to be 17.8 µM; in data set [1] (setting [13]), 22.5 ± 0.6 µM; in [2], 27.1 ± 4.9 µM; in [4], 15 µM; in data set [5], 8 µM; in data set [6] it was 3.9 µM. The IC50 in data set [8] stood at 16 µM. Also, in [7], the “Fold induction of luciferase activity” value came to 84 fold. The “Concentration” value in [7] came out at 5.5 µM.
